Measurements reported in patent US4352809A, “Method of producing alpha2 antagonism” (Smithkline Corporation, priority 1981, dated 1982).
Counter-ions that a name gives are not always drawn.

Target: T1, alpha2 -adrenoceptor (Cavia porcellus, UniProt Q60474)
T1 construct: The left atrium is removed, dissected free of extraneous tissue and mounted in a 2 ml. superfusion chamber; from tissue; host or cells: isolated left atrium of male guinea pig (prejunctional receptors on sympathetic nerve terminals)
T1 sequence (Q60474 1-464): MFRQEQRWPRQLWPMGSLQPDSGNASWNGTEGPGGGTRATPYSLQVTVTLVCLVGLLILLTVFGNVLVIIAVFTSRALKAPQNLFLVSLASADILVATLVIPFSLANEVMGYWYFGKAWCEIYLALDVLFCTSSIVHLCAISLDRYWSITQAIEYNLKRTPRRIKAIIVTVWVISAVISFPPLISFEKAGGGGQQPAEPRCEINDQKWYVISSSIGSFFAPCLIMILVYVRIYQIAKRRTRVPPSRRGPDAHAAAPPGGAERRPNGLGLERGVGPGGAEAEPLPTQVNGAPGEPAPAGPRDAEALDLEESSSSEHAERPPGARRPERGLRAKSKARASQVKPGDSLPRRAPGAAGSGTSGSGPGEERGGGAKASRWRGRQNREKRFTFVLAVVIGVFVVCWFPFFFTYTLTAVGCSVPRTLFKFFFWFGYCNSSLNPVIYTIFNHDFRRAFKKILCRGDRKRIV
Experiment: prejunctional alpha2-antagonist activity, isolated superfused guinea pig left atrium (shift of the clonidine concentration-response curve)
Format: cell-based
Details: isolated perfused guinea pig left atrium; antagonist concentration that shifts the clonidine log concentration-response curve to the right by a factor of 2; read-out: KB (receptor dissociation constant of the antagonist)
Protocol: Briefly, the heart is removed from a pentobarbitol-anesthetized male guinea pig. The left atrium is removed, dissected free of extraneous tissue and mounted in a 2 ml. superfusion chamber. The tissue is paced at 60 pulse/minute and the sympathetic nerves excited at 6 minute intervals by field stimulation. The response to nerve stimulation is measured as the difference in contractile force between the basal contraction and peak contraction following a nerve stimulation. A concentration-response curve for clonidine (alpha2 -agonist) is prepared by administering increasing concentration of clonidine following each successive stimulation. The tissue is then superfused with the alpha2 -antagonist to be tested for thirty minutes and the clonidine concentration-effect curve was repeated in the presence of antagonist. The receptor dissociation constant of the antagonist (KB) is defined as the antagonist concentration required to shift the log concentration-response curve of the agonist to the right by a factor of 2.

Structure (SMILES): c1cc2snnc2c2c1CCNC2 [[1,2,3]thiadiazolo[5,4-h]-6,7,8,9-tetrahydroisoquinoline hydrochloride]
- Kb: 220 nM
